The subject of the assay is L1210 leukemia ip in BDF1 mice, survival T/C. In words: NCI In Vivo Anticancer Drug Screen. Data for tumor model L1210 Leukemia (intraperitoneal) in B6D2F1 (BDF1) mice. The settings on record: endpoint: mean survival time, higher = longer survival. An outline of the steps:
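Value reflects the ratio of survival in compound-treated mice to survival in vehicle-treated controls, with both groups carrying the same transplanted tumor.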

[1] abbreviates: dose: 100.0 mg/kg/injection, schedule: Q04DX002 (ip), vehicle: saline.
The mark [2] stands for this setting: dose: 200.0 mg/kg/injection, schedule: Q04DX002 (ip), vehicle: saline.
The mark [3] stands for this setting: dose: 100.0 mg/kg/injection, schedule: Q04DX003 (ip), vehicle: saline.
Where [4] appears, read: dose: 200.0 mg/kg/injection, schedule: Q04DX003 (ip), vehicle: saline.
[5] abbreviates: dose: 400.0 mg/kg/injection, schedule: Q04DX003 (ip), vehicle: saline.
Setting [6] is: dose: 100.0 mg/kg/injection, schedule: Q01DX009 (ip), vehicle: Klucel (hydroxypropylcellulose) (HPC).
The mark [7] stands for this setting: dose: 200.0 mg/kg/injection, schedule: Q01DX009 (ip), vehicle: Klucel (hydroxypropylcellulose) (HPC).
The mark [8] stands for this setting: dose: 400.0 mg/kg/injection, schedule: Q01DX009 (ip), vehicle: Klucel (hydroxypropylcellulose) (HPC).
The mark [9] stands for this setting: dose: 100.0 mg/kg/injection, schedule: Q01DX001 (ip), vehicle: other.
Where [10] appears, read: dose: 200.0 mg/kg/injection, schedule: Q01DX001 (ip), vehicle: other.
Setting [11] is: dose: 400.0 mg/kg/injection, schedule: Q01DX001 (ip), vehicle: other.
Where [12] appears, read: dose: 100.0 mg/kg/injection, schedule: Q04DX003 (ip), vehicle: saline with Tween-80.
Where [13] appears, read: dose: 200.0 mg/kg/injection, schedule: Q04DX003 (ip), vehicle: saline with Tween-80.
The mark [14] stands for this setting: dose: 25.0 mg/kg/injection, schedule: Q01DX009 (ip), vehicle: saline.
[15] abbreviates: dose: 50.0 mg/kg/injection, schedule: Q01DX009 (ip), vehicle: saline.
[16] abbreviates: dose: 100.0 mg/kg/injection, schedule: Q01DX009 (ip), vehicle: saline.
Where [17] appears, read: dose: 200.0 mg/kg/injection, schedule: Q01DX009 (ip), vehicle: saline.
[18] abbreviates: dose: 100.0 mg/kg/injection, schedule: Q04DX003 (ip), vehicle: Klucel (hydroxypropylcellulose) (HPC).
Where [19] appears, read: dose: 200.0 mg/kg/injection, schedule: Q04DX003 (ip), vehicle: Klucel (hydroxypropylcellulose) (HPC).
Setting [20] is: dose: 400.0 mg/kg/injection, schedule: Q04DX003 (ip), vehicle: Klucel (hydroxypropylcellulose) (HPC).
[21] abbreviates: dose: 25.0 mg/kg/injection, schedule: Q04DX003 (ip), vehicle: saline.
Setting [22] is: dose: 50.0 mg/kg/injection, schedule: Q04DX003 (ip), vehicle: saline.

Molecules are shown by their SMILES. Values joined by “and” are separate entries in the source; they are usually repeats but may differ in a detail not shown here. Equal values may be shown once. Toxic doses and inconclusive results are not listed.

Take `CC(=O)NC1C(OC(C)=O)OC(COC(C)=O)C(OC(C)=O)C1OC(C)=O` (centres undefined): the T/C reads like this: (dose: 100.0 mg/kg/injection, schedule: Q01DX001 (ip), vehicle: saline with Tween-80) 100 % of control; (dose: 200.0 mg/kg/injection, schedule: Q01DX001 (ip), vehicle: saline with Tween-80) 103 % of control; (dose: 400.0 mg/kg/injection, schedule: Q01DX001 (ip), vehicle: saline with Tween-80) 103 % of control.

Consider `C=CCOC(=O)C(C)(O)C(Cl)c1ccccc1` (centres undefined), for which the T/C reads like this: under setting [1], 103 % of control; under setting [2], 100 % of control; (dose: 400.0 mg/kg/injection, schedule: Q04DX002 (ip), vehicle: saline) 100 % of control.

On to `COC12OCC(O)C1OC(=O)C2O` (centres undefined), for which the T/C by setting is: (dose: 50.0 mg/kg/injection, schedule: Q04DX002 (ip), vehicle: saline) 91 % of control; under setting [1], 91 % of control; under setting [2], 95 % of control.

Regarding `O=C(NCc1ccccc1)c1ccc(Cl)cc1`, the T/C is 97 % of control under setting [3], 97 % of control under setting [4] and 95 % of control under setting [5].

`COc1ccccc1C(=O)N/N=C(\C)c1cccc2ccccc12`: the T/C by setting is: under setting [6], 108 % of control; under setting [7], 110 % of control; under setting [8], 96 % of control.

For `Cc1nc2c(=O)[nH]c(=O)[nH]c2[nH]c1=O`, the T/C (dose: 16.0 mg/kg/injection, schedule: Q01DX Z (ip), vehicle: methylcellulose (MC)) was 89 % of control; the T/C (dose: 31.0 mg/kg/injection, schedule: Q01DX Z (ip), vehicle: methylcellulose (MC)) was 95 % of control; the T/C (dose: 62.0 mg/kg/injection, schedule: Q01DX Z (ip), vehicle: methylcellulose (MC)) is 93 % of control; the T/C under setting [9] is 96 % of control; the T/C (dose: 100.0 mg/kg/injection, schedule: Q04DX003 (ip), vehicle: other) was 100 % of control; the T/C (dose: 125.0 mg/kg/injection, schedule: Q01DX Z (ip), vehicle: methylcellulose (MC)) was 101 % of control. Also, the T/C by setting is: under setting [10], 102 % of control; (dose: 200.0 mg/kg/injection, schedule: Q04DX003 (ip), vehicle: other) 111 % of control; under setting [11], 102 % of control; (dose: 400.0 mg/kg/injection, schedule: Q04DX003 (ip), vehicle: other) 107 % of control.

Take `CN=C(c1ccc(NC(=O)c2cc(C(=O)Nc3ccc(C(=NC)N(C)C)cc3)cc([N+](=O)[O-])c2)cc1)N(C)C`: the T/C is, setting by setting: (dose: 1.88 mg/kg/injection, schedule: Q01DX Z (ip), vehicle: saline) 100 % of control; (dose: 3.75 mg/kg/injection, schedule: Q01DX Z (ip), vehicle: saline) 100 % of control; (dose: 7.5 mg/kg/injection, schedule: Q01DX Z (ip), vehicle: saline) 98 % of control.

As to `CC(=O)OC1CCCCC1NC(=O)N(CCCl)N=O` (centres undefined), the T/C is 333 % of control (dose: 27.0 mg/kg/injection, schedule: Q01DX001 (ip), vehicle: carboxymethylcellulose (CMC)); 423 % of control (dose: 40.0 mg/kg/injection, schedule: Q01DX001 (ip), vehicle: carboxymethylcellulose (CMC)); 422 % of control (dose: 60.0 mg/kg/injection, schedule: Q01DX001 (ip), vehicle: carboxymethylcellulose (CMC)); 170 % of control (dose: 90.0 mg/kg/injection, schedule: Q01DX001 (ip), vehicle: carboxymethylcellulose (CMC)).

Consider `CCCCOc1ccc(/C=N/NC(=S)Nc2ccccc2)cc1`, for which the T/C is, setting by setting: under setting [6], 97 % of control; under setting [7], 98 % of control; under setting [8], 95 % of control.

Take `Cc1ccc(C(=O)C(F)(F)F)cc1`: the T/C runs as follows: under setting [12], 96 % of control; under setting [13], 102 % of control.

For `Cc1ccc2c(c1)P(O)(=S)c1cc(Cl)ccc1O2` (centres undefined), the T/C under setting [14] is 102 % of control, the T/C under setting [15] was 108 % of control, the T/C under setting [16] is 108 % of control and the T/C under setting [17] was 108 % of control.

In the case of `C=C=CC1CCCC1C` (centres undefined), the T/C is 110 % of control (dose: 50.0 mg/kg/injection, schedule: Q01DX009 (ip), vehicle: saline with Tween-80); 106 % of control (dose: 100.0 mg/kg/injection, schedule: Q01DX009 (ip), vehicle: saline with Tween-80); 92 % of control (dose: 200.0 mg/kg/injection, schedule: Q01DX009 (ip), vehicle: saline with Tween-80).

Take `COC(=O)COc1ccc(Cl)cc1C(=O)O`: the T/C under setting [12] was 94 % of control and the T/C under setting [13] is 92 % of control.

As for `Nc1nc(=O)[nH]nc1SCc1ccccc1`, the T/C reads like this: (dose: 100.0 mg/kg/injection, schedule: Q01DX001 (ip), vehicle: saline) 104 % of control; (dose: 200.0 mg/kg/injection, schedule: Q01DX001 (ip), vehicle: saline) 98 % of control; (dose: 400.0 mg/kg/injection, schedule: Q01DX001 (ip), vehicle: saline) 98 % of control.

On to `C=Cc1ccccc1` (tested in a mixture with another compound), for which the T/C by setting is: (dose: 75.0 mg/kg/injection, schedule: Q01DX001 (ip), vehicle: other) 101 % of control; (dose: 150.0 mg/kg/injection, schedule: Q01DX001 (ip), vehicle: other) 97 % of control; (dose: 300.0 mg/kg/injection, schedule: Q01DX001 (ip), vehicle: other) 87 % of control.

For the compound `O=c1cc(NC(c2ccccc2)c2ccccc2)[nH]c(=O)[nH]1`, the T/C was 97 % of control under setting [18], 97 % of control under setting [19] and 98 % of control under setting [20].

As to `CC[NH-].CC[NH-].[I][Pt+2][I]`, the T/C reads like this: (dose: 12.5 mg/kg/injection, schedule: Q04DX003 (ip), vehicle: saline) 106 % of control; under setting [14], 109 % of control; under setting [21], 101 % of control; under setting [15], 105 % of control; under setting [22], 101 % of control; under setting [3], 110 % of control.

Turning to `O=C(O)c1sccc1-c1cccc2ccccc12`, the T/C (dose: 50.0 mg/kg/injection, schedule: Q01DX001 (ip), vehicle: Klucel (hydroxypropylcellulose) (HPC)) was 94 % of control; the T/C (dose: 100.0 mg/kg/injection, schedule: Q01DX001 (ip), vehicle: Klucel (hydroxypropylcellulose) (HPC)) is 96 % of control; the T/C (dose: 200.0 mg/kg/injection, schedule: Q01DX001 (ip), vehicle: Klucel (hydroxypropylcellulose) (HPC)) is 94 % of control.

In the case of `OCC1OC(c2[nH]nc3c(Cl)ncnc23)C(O)C1O` (centres undefined), the T/C (dose: 100.0 mg/kg/injection, schedule: Q01DX005 (ip), vehicle: saline) was 108 % of control and the T/C (dose: 200.0 mg/kg/injection, schedule: Q01DX005 (ip), vehicle: saline) was 120 % of control.

As to `CCCCCCCCCC(=O)NO`, the T/C by setting is: under setting [21], 102 % of control; under setting [22], 98 % of control; under setting [9], 97 % of control; under setting [16], 87 % of control; under setting [18], 93 % of control; under setting [3], 86 % of control and 92 % of control. In addition, the T/C is 97 % of control under setting [10]; 98 % of control under setting [17]; 93 % of control under setting [19]; 88 % of control under setting [4]; 95 % of control under setting [11]; 91 % of control under setting [20]. Under setting [5], the T/C was 86 % of control.
